In US7838732B2, “Transgenic plants expressing a cellulase” (Syngenta Participations AG, priority 1996, dated 2010):

How the values were obtained:
[1] = system: PR-1a/T7 polymerase x plastid T7/cellulase plants; test: E5 cellulase mRNA content of plants after BTH induction (Northern blot); assay type: in vivo, Nicotiana tabacum
From the text: Homozygous NT-10× and NT-110N plants containing the PR-1a-T7 RNA Pol construct were used to pollinate homoplastidic Nt_pC8E5 and Nt_pC+E5 plastid transformant lines carrying the maternally inherited pC8E5 and pC+E5 cellulase constructs. The Nt_pC+E5×NT-110X or NT--110N, and Nt_pC8E5×NT-110X or NT110N F1 progeny (which were heterozygous for the PR-1/T7 polymerase nuclear expression cassette and homoplastidic for the T7/cellulase plastid expression cassette) were germinated on soil. Upon reaching a height of […], the plants were sprayed with the inducer compound BTH to elicit T7 Pol-regulated expression of the E5 cellulase gene that is localized to the plastids. […]
Total RNA was extracted from frozen tissue of BTH and wettable powder-sprayed control and PR-1a/7 polymerase×plastid T7/cellulase plants, and Northern blot analysis on 5 μg RNA samples was carried out as described (Ward et al. (1991) The Plant Cell 3, 1085-1094) using as a probe a radiolabelled DNA fragment containing the E5 cellulase coding sequence. Relative E5 cellulase mRNA accumulation at each time point was assessed by quantifying the radioactivity in bands hybridizing with the radiolabelled E5 cellulase probe in order to determine time courses of fold mRNA induction. […] Prior to induction, no cellulase mRNA is detected.

[2] = system: nuclear PR-1a/GUS transformants; test: GUS protein accumulation in nuclear PR-1a/GUS transformants after induction (Western blot); assay type: in vivo; conditions: nuclear PR1a/GUS transformants
Protocol: (§1) Total RNA was extracted from frozen tissue of BTH and wettable powder-sprayed control and PR-1a/T7 polymerase×plastid T7/GUS plants, and Northern blot analysis on 5 μg RNA samples was carried out as described (Ward et al. (1991) The Plant Cell 3, 1085-1094) using as a probe a 500 bp radiolabelled 5′ fragment of the GUS gene. […] Example C12 Determination of GUS protein content of transgenic plants In order to determine the amount of GUS present in the tissues of transgenic plants, chemiluminescent (Amersham) Western blot analysis was performed according to the manufacturer's instructions and Harlow and Lane (1988) Antibodies: A laboratory manual, Cold Spring Harbor Laboratory, Cold Spring Harbor, using GUS antisera purchased from Molecular Probes and purified GUS protein standards (Sigma). Proteins from frozen, ground leaf material harvested as above were solubilized by extraction in 50 mM Tris pH 8.0, 1 mM EDTA, 1 mM PTT, 1 mM AEBSP, and 1 mM DTT and 5 to 25 μg protein run on each lane of 10% polyacrylamide gels. GUS protein accumulation in the plastid transformed plants is sustained over 7-28 days and beyond, and is extraordinarily high (much higher than peak GUS accumulation for nuclear PR-1a/GUS), exceeding 20% of total protein by 28 days.

[3] = system: PR-1a/T7 polymerase x plastid T7/GUS plants (pPH110X6b x 4276P); test: GUS mRNA content of plants sprayed with BTH (Northern blot, ethidium bromide scan); assay type: in vivo, Nicotiana tabacum
From the text: (§2) The N. tabacum ‘Xanthi’ plastid transformant line 4276P described by McBride et al. ((1994) PNAS 91: 7301-7305) was pollinated by homozygous NT-110X6b5 plants containing the PR-1a/T7 RNA polymerase. 4276P differs from pC8 only with respect to (a) the promoter used to express the aadA selectable marker (which has the 16S ribosomal RNA gene promoter rather than the psbA gene promoter used in pC8), (b) the presence of a psbA gene 3′ untranslated region between the GUS gene and the T7 terminator, and (c) the absence of a lac operator and duplicated StuI restriction site sequence in the T7 promoter. F1 plants from this cross heterozygous for the PR-1a/T7 polymerase nuclear expression cassette and homoplastidic for the T7/GUS plastid expression cassette were germinated in soil. Upon reaching a height of 20 to 40 cm the plants were sprayed with either an inert wettable powder suspension or a formulation of the inducer compound BTH with wettable powder. Control untransformed N. tabacum ‘Xanthi’, NT-110X6b-5, and 4276P plants germinated in soil at the same time were sprayed in a similar manner. Plant material (one leaf from each of three independent plants of each genotype) was harvested just prior to spraying and at 8 hours and 1, 2, 3, 7, and 28 days following spraying, and flash frozen as described above.
as §1

[4] = system: PR-1a/T7 polymerase x plastid T7/GUS plants (pPH110X6b x 4276P); test: GUS activity in leaf extracts of plants sprayed with BTH (fluorometric MUG assay); assay type: in vivo, Nicotiana tabacum
From the text: as §2
Frozen leaf tissue was ground in a mortar with a pestle in the presence of liquid nitrogen to produce a fine powder. Leaf extracts were prepared in GUS extraction buffer (50 mM sodium phosphate pH7.0, 0.1% Triton-X 100, 0.1% sarkosyl, 10 mM β-mercaptoethanol) as described by Jefferson, R. A. et al. (1986), PNAS USA 83, 8447-8451. The reactions were carried out in the wells of opaque microtiter plates by mixing 10 ul of extract with 65 ul of GUS assay buffer (50 mM sodium phosphate pH 7.0, 10 mM EDTA, 0.1% Triton X-100, 10 mM β-mercaptoethanol) containing 4-methyl umbelliferyl glucuronide […] at a final concentration of 2 mM in a total volume of 75 ul. The plate was incubated at 37° C. for 30 minutes and the reaction was stopped by the addition of 225 ul of 0.2 M sodium carbonate. The concentration of fluorescent indicator released was determined by reading the plate on a Flow Labs Fluoroskan II ELISA plate reader. Duplicate fluorescence values for each sample were averaged, and background fluorescence (reaction without MUG) was subtracted to obtain the concentration of MU for each sample. The amount of protein in each extract was determined using the bicinchoninic acid technique (BCA, Pierce Biochemicals) according to the manufacturer's recommendations except that protein extracts were pretreated with iodoacetamide (Sigma) to eliminate background signal caused by the reductant (β-mercaptoethanol) present in the extraction buffer. The specific activity was determined for each sample and was expressed in pmoles MU/mg protein/minute. For each tissue sample assayed from a particular time point following BTH application, the specific activity of the BTH-induced sample was divided by the specific activity of the pre-BTH treatment control sample, thus yielding the induction of GUS expression. (See Table I)

[5] = system: PR-1a/T7 polymerase x plastid T7/GUS plants; test: GUS protein content of plants after BTH induction (Western blot); assay type: in vivo, Nicotiana tabacum; conditions: plastid transformed plants
From the text: as §2, with “above. […]” for “above.”

Structure (SMILES): CSC(=O)c1cccc2nnsc12 [BTH, benzo(1,2,3)thiadiazole-7-carbothioic acid S-methyl ester]
- time of peak cellulase mRNA accumulation ([1]; after induction): 14 days
- E5 cellulase mRNA accumulation following induction ([1]; plant material of example C6, none detected prior to induction): significant cellulase mRNA accumulation
- GUS protein accumulation by 28 days ([2]; 28 days): declines to the limits of detection
- time of peak GUS protein accumulation ([2]; from induction): about 3 days
- % Total RNA (GUS RNA) ([3]; 0.3 days after BTH spray): <0.013%
- % Total RNA (GUS RNA) ([3]; 1.0 days after BTH spray): 0.108%
- % Total RNA (GUS RNA) ([3]; 2.0 days after BTH spray): 0.873%
- % Total RNA (GUS RNA) ([3]; 3.0 days after BTH spray): 2.663%
- % Total RNA (GUS RNA) ([3]; 7.0 days after BTH spray): 7.745%
- % Total RNA (GUS RNA) ([3]; 28.0 days after BTH spray): 24.596%
- peak level of chemically inducible GUS RNA in the plastid, of total ethidium-stainable RNA ([3]; between 7 and 28 days after induction with BTH): 14%
- peak GUS RNA relative to peak chemically inducible GUS mRNA accumulation for nuclear PR-1a/GUS transformants ([3]; plastid vs nuclear PR-1a/GUS transformants): over 1000 fold
- GUS activity (pmol MU/mg/min) ([4]; 0.3 days after BTH spray): 434 pmol MU/mg/min
- GUS activity (pmol MU/mg/min) ([4]; 1.0 days after BTH spray): 14,516 pmol MU/mg/min
- GUS activity (pmol MU/mg/min) ([4]; 2.0 days after BTH spray): 230,031 pmol MU/mg/min
- GUS activity (pmol MU/mg/min) ([4]; 3.0 days after BTH spray): 456,486 pmol MU/mg/min
- GUS activity (pmol MU/mg/min) ([4]; 7.0 days after BTH spray): 2,424,725 pmol MU/mg/min
- GUS activity (pmol MU/mg/min) ([4]; 28.0 days after BTH spray): 1,922,466 pmol MU/mg/min
- GUS protein accumulation, of total protein ([5]; by 28 days): exceeding 20%
- time of peak/sustained GUS protein accumulation ([5]; from induction): 7 to 28 days
